{"source": "ChEMBL document CHEMBL1201862", "about": "“PubChem BioAssay data set” (2004)", "key": {"[1]": {"experiment": "cells", "assay_type": "functional"}, "[2]": {"experiment": "THP-1 cell cytotoxicity, dose response, cytotoxicity control for non-replicating M. tuberculosis project (AID 489025)", "assay_type": "functional"}, "[3]": {"tested_on": "H9c2", "experiment": "cells", "assay_type": "functional, cell-based", "conditions": "Rattus norvegicus, H9c2, Myocardium"}, "[4]": {"tested_on": "Streptococcus sp. 'group A'", "experiment": "growth inhibition of control SK(-) GAS strain, dose response, counter-screen for streptokinase expression inhibitor project, luminescence, kanamycin, BacTiterGlo, confirmation (AID 1900)", "assay_type": "functional, organism-based"}, "[5]": {"experiment": "Vero E6 cell cytotoxicity, dose response, cytotoxicity control for non-replicating M. tuberculosis project, secondary assay (AID 492998)", "assay_type": "functional, VeroE6", "conditions": "Vero C1008"}, "[6]": {"experiment": "HepG2 cell cytotoxicity, dose response, cytotoxicity control for non-replicating M. tuberculosis project (AID 489018)", "assay_type": "functional", "conditions": "Mycobacterium tuberculosis"}, "[7]": {"tested_on": "Streptococcus", "experiment": "Group A Streptococcus viability loss, dose response, counter-screen for streptokinase expression inhibitor project, luminescence, BacTiterGlo (AID 1915);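 also: potency for reduction of bacterial viability or growth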", "assay_type": "functional, organism-based"}, "[8]": {"target": "T1, Streptokinase A (Streptococcus pyogenes serotype M1, UniProt P10520)", "T1 sequence (P10520 whole entry)": "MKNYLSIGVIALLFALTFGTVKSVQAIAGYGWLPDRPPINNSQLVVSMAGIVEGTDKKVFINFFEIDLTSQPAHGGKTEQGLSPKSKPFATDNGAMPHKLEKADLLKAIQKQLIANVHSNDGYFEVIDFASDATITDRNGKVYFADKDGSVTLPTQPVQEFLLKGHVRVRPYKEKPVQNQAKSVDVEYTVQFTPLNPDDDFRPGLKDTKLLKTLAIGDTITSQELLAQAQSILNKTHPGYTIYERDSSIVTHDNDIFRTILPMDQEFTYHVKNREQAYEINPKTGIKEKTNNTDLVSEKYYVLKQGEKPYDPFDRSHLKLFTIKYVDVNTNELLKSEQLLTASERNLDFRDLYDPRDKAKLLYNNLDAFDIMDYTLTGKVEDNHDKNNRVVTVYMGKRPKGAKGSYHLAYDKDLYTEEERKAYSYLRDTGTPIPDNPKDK", "experiment": "S. pyogenes streptokinase expression inhibitors, potency, dose response, plasminogen activation absorbance, OD405 (AID 1914);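 also: secreted streptokinase activity via plasminogen activation per viability signal from cell pellet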", "assay_type": "functional, Streptococcus pyogenes M1 GAS"}, "[9]": {"target": "Polyadenylate-binding protein 1 (Homo sapiens, UniProt P11940)", "sequence (P11940 whole entry)": "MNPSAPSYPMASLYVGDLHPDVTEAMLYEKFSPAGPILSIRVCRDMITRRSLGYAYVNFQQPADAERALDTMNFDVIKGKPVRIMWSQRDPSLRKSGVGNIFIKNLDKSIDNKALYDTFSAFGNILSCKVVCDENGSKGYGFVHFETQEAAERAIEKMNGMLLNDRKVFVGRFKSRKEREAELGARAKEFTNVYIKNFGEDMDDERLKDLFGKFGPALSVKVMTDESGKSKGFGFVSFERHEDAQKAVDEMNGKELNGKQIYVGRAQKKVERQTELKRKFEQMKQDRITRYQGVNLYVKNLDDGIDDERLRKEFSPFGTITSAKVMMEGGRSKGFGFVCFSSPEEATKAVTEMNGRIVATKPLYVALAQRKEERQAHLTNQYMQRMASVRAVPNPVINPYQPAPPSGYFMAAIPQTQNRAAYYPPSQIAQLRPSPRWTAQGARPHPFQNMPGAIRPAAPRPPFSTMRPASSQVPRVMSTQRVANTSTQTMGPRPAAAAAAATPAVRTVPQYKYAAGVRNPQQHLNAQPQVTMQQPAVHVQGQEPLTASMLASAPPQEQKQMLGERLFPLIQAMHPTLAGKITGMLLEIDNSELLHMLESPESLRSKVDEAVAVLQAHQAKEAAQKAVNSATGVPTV", "experiment": "PABP inhibition in translation initiation, SAR follow-up (AID 435018)", "assay_type": "functional"}, "[10]": {"target": "Eukaryotic translation initiation factor 4H (Homo sapiens, UniProt Q15056)", "experiment": "eIF4H inhibition in translation initiation, SAR follow-up (AID 435011)", "assay_type": "functional"}, "[11]": {"target": "T2, Kappa-type opioid receptor (Homo sapiens, UniProt P41145)", "T2 sequence (P41145 whole entry)": "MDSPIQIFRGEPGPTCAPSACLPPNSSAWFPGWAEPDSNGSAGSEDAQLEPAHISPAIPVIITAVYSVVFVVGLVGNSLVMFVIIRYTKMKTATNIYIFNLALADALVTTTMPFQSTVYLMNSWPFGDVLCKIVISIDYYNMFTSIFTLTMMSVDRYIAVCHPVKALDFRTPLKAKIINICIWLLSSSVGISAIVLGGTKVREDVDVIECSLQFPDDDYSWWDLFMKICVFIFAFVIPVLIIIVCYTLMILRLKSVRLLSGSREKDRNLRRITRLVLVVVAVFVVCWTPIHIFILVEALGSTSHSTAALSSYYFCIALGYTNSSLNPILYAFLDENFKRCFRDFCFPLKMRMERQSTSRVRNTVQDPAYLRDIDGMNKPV", "assay_type": "functional"}, "[12]": {"target": "Beta-galactosidase (Escherichia coli, UniProt Q8VNN2)", "sequence (Q8VNN2 whole entry)": "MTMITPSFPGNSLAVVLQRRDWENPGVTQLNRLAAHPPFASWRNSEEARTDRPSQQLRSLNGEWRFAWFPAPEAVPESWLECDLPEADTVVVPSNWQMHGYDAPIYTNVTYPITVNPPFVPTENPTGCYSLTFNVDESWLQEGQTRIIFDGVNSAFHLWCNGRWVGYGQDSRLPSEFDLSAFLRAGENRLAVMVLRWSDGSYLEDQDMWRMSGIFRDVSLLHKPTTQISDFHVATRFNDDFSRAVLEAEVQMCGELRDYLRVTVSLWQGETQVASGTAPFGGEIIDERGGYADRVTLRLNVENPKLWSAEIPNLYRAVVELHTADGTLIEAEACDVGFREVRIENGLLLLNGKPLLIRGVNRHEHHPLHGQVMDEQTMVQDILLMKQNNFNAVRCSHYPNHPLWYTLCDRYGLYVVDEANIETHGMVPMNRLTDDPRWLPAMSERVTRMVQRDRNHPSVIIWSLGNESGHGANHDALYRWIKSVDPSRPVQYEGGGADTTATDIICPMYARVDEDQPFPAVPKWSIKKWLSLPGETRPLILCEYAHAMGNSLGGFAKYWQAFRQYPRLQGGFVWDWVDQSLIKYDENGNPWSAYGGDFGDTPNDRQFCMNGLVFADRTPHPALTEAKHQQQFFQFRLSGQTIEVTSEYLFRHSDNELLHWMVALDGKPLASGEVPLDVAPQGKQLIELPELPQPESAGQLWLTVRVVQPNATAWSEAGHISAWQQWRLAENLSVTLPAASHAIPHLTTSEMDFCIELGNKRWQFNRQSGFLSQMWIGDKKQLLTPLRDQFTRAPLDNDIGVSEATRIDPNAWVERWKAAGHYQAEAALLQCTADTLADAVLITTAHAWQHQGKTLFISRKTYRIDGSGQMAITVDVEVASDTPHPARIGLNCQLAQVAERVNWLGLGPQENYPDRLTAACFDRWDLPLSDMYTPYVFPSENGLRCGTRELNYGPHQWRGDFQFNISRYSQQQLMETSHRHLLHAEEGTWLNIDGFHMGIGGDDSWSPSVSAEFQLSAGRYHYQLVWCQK", "assay_type": "functional"}, "[13]": {"target": "T3, Microphthalmia-associated transcription factor (Homo sapiens, UniProt O75030)", "T3 sequence (O75030 whole entry)": "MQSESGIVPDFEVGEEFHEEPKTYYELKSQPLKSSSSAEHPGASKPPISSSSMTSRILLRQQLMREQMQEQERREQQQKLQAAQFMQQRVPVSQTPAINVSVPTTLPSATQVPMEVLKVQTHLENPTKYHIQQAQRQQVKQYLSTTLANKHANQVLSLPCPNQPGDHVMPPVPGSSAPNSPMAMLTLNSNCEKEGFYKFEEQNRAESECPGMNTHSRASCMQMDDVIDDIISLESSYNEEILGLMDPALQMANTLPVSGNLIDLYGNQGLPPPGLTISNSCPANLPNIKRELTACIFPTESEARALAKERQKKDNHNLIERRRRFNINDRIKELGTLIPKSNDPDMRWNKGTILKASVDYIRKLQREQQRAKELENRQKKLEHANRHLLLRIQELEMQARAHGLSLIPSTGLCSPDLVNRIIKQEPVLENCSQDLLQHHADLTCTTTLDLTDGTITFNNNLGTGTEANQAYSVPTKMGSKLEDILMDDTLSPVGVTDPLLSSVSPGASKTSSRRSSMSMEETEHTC", "experiment": "TRPM1 promoter luciferase signal decrease, dose response, MITF inhibitor project, cell-based, SK-MEL-5, cherry-picked, set 3 (AID 493073)", "assay_type": "functional"}, "[14]": {"target": "T2, Kappa-type opioid receptor", "assay_type": "functional", "remark": "listed apart in the source"}}, "note": "Active and inactive are the calls of the source."}
{"smiles": "CCCn1c(NC(=O)c2ccccc2)nc2ccccc21", "values": [{"measurement": "IC50", "setting": "[1]", "result": "1.75 µM (active)"}, {"measurement": "CC50", "setting": "[2]", "result": "35.9 µM (active)"}, {"measurement": "IC50", "setting": "[3]", "result": "> 79 µM (inactive)"}, {"measurement": "EC50", "setting": "[4]", "result": "2.56 µM (active)"}, {"measurement": "CC50", "setting": "[5]", "result": "> 20 µM (active)"}, {"measurement": "CC50", "setting": "[6]", "result": "> 20 µM (active)"}, {"measurement": "EC50", "setting": "[7]", "result": "> 150 µM (not active)"}, {"measurement": "EC50", "setting": "[8]", "result": "> 150 µM (not active)"}]}
{"smiles": "COc1ccc(Cl)cc1NC(=O)COC(=O)c1ccc(NC(N)=O)cc1", "values": [{"measurement": "IC50", "setting": "[9]", "result": "> 100 µM (inactive)"}, {"measurement": "IC50", "setting": "[10]", "result": "> 100 µM (inactive)"}]}
{"smiles": "CC1=C/C(=N\\NC(=S)Nc2cccnc2)CC(C)(C)C1", "values": [{"measurement": "IC50", "setting": "[11]", "result": "9.46 µM (active)"}, {"measurement": "EC50", "setting": "[12]", "result": "> 31.5 µM (inactive)"}, {"measurement": "AC50", "setting": "[13]", "result": "11 µM (active)"}, {"measurement": "IC50", "setting": "[14]", "result": "> 32", "unit": "µM"}]}
{"smiles": "O=C(Nc1nnc(-c2ccco2)o1)c1ccc([N+](=O)[O-])s1", "values": [{"measurement": "IC50", "setting": "[1]", "result": "9.81 µM (active)"}, {"measurement": "CC50", "setting": "[2]", "result": "17.4 µM (active)"}, {"measurement": "CC50", "setting": "[5]", "result": "11.6 µM (active)"}, {"measurement": "CC50", "setting": "[6]", "result": "> 20 µM (active)"}]}
